Experimental data from US7344829B2, “Methods for detecting the efficacy of anticancer treatments” (Board of Regents, the University of Texas System, priority 2000, dated 2008).
pIC50: −log10 of the molar value. Where two headings read alike, the source gives them in different places.

Key:
KDR = target: T1, KDR (Homo sapiens, UniProt P35968); experiment: GST-fused kinase domain assay, KDR; type: biochemical
T1 construct: GST-fused kinase domains of Kdr, Flt-1, Flk, Tek, c-Met, and c-Kit were expressed in baculovirus; GST; made in house
Procedure: (§1) GST-fused kinase domains of Kdr, Flt-1, Flk, Tek, c-Met, and c-Kit were expressed in baculovirus and purified over glutathione-Sepharose. Kinase inhibition was measured by detecting the decrease in phosphorylation of poly(Glu,Tyr 4:1) essentially as previously described for EGF-R. Each kinase was incubated under optimized buffer conditions in 20 mM Tris-HCl, pH 7.5, 1–3 mM MnCl2, 3–10 mM MgCl2, 10 μM Na3VO4, 1 mM DTT, 0.2 μCi/[γ-^33P]ATP, 1–8 μM ATP, 3–8 μg/ml poly(Glu,Tyr 4:1), 1% DMSO in a total volume of 30 μl in the presence or absence of PKI166 for 10 min at ambient temperature. Reactions were terminated by adding 10 μl of 250 mM EDTA, and the reaction mixture was transferred onto an Immobilon-PVDG membrane (Millipore, Bedford, Mass.). Following a washing (0.5% H3PO4), a soaking in EtOH, and drying, filters were counted in a liquid scintillation counter. IC50 values for PKI166 were calculated by linear regression analysis of the percentage inhibition. Inhibition of Cdc2/cyclin B protein kinase (Arion et al. 1988; Partanen et al. 1991) and PKC (McGlynn et al. 1992b) was assayed as previously described.

IL-8 = experiment: In vitro expression of IL-8 by L3.6pl cells (ELISA); type: cell-based, human; conditions: 72 h, 1 μM PKI166 or 10 nM gemcitabine, control 1440 pg/ml
Procedure: In vitro Expression of VEGF and IL-8. L3.6pl cells (2000 cells/38 mm^2 well) were plated into 96-well plates in 200 μl supplemented DMEM containing 5% FBS for 24 h, and then treated with 0.05, 0.5, or 1 μM PKI166. Supplemented DMEM (5% FBS) and human IgG (10 μg/ml) served as controls. Seventy-two hours later, the culture supernatants were collected, and the level of VEGF and IL-8 proteins (corrected for cell number) were determined by Quantikine ELISA kits.

EGF-R-ICD = target: T2, EGF-R-ICD (Homo sapiens, UniProt P00533); experiment: In vitro kinase filter binding assay, EGF-R intracellular kinase domain; type: biochemical
T2 construct: EGF-R intracellular kinase domain (EGF-R-ICD) was assayed in 20 mM Tris-HCl
Procedure: (§2) Preparation of Enzymes and Kinase Assays. In vitro enzyme assays using EGF-R (McGlynn et al. 1992a), Abl (Geissler et al. 1992), and c-Src (Geissler et al. 1990) protein tyrosine kinases were performed in 96-well plates as a filter binding assay. Briefly, EGF-R intracellular kinase domain (EGF-R-ICD) was assayed in 20 mM Tris-HCl, pH 7.5, 10 mM MnCl2, 10 μM Na3VO4, 1 mM DTT, 0.1 μCi/assay [γ-^33P]ATP, 0.4 μM ATP, 2 μ/ml poly(Glu,Tyr 4:1) (Sigma P275), 1% DMSO, and 30 ng EGF-R-ICD in a total volume of 30 μl. The His-tagged kinase domain of c-Abl was cloned and expressed in the baculovirus/Sf9 system as described previously (Bhat et al. 1997) and assayed in 20 mM Tris-HCl, pH 7.5, 10 mM MgCl2, 10 μM Na3VO4, 1 mM DTT, 0.06 μCi/assay (=30 μl ) [γ-^32P]ATP, 5 μM ATP, 30 μg/ml poly(Ala,Glu,Lys,Tyr 6:2:5:1) (Sigma P1152), 1% DMSO, and 50 ng c-Abl enzyme. Src kinase (60 μg/ml) was preactivated with 50 μM ATP for 10 min at room temperature, and kinase inhibition was measured in 20 mM Tris-HCl, pH 7.5, 10 mM MgCl2, 10 μM Na3VO4, 1 mM DTT, 0.1 μCi/assay (=30 μl ) [γ-^33P]ATP, 20 μM ATP, 25 μg/ml poly(Glu,Tyr 4:1), 1% DMSO, and 10 ng c-Src enzyme.
as §1

c-Src = c-Src (Homo sapiens, UniProt P12931); experiment: In vitro kinase filter binding assay, c-Src; type: biochemical
Procedure: as §2, with “The His-tagged kinase domain of c-Abl was cloned and expressed in the baculovirus/Sf9 system as described previously (Bhat et al. 1997) and assayed in 20 mM Tris-HCl, pH 7.5, 10 mM MgCl2, 10 μM Na3VO4, 1 mM DTT, 0.06 μCi/assay (=30 μl ) [γ-^32P]ATP, 5 μM ATP, 30 μg/ml poly(Ala,Glu,Lys,Tyr 6:2:5:1) (Sigma P1152), 1% DMSO, and 50 ng c-Abl enzyme.” left out
(§3) GST-fused kinase domains of Kdr, Flt-1, Flk, Tek, c-Met, and c-Kit were expressed in baculovirus and purified over glutathione-Sepharose. Kinase inhibition was measured by detecting the decrease in phosphorylation of poly(Glu,Tyr 4:1) essentially as previously described for EGF-R. Each kinase was incubated under optimized buffer conditions in 20 mM Tris-HCl, pH 7.5, 1–3 mM MnCl2, 3–10 mM MgCl2, 10 μM Na3VO4, 1 mM DTT, 0.2 μCi/[γ-^33P]ATP, 1–8 μM ATP, 3–8 μg/ml poly(Glu,Tyr 4:1), 1% DMSO in a total volume of 30 μl in the presence or absence of PKI166 for 10 min at ambient temperature. […]

c-Abl = target: T3, c-Abl (Homo sapiens, UniProt P00519); experiment: In vitro kinase filter binding assay, c-Abl kinase domain; type: biochemical; conditions: c-Abl tyrosine kinase
T3 construct: The His-tagged kinase domain of c-Abl was cloned and expressed in the baculovirus/Sf9 system; His; made in house; host or cells: baculovirus/Sf9
T3 sequence (P00519 242-493 limits assumed): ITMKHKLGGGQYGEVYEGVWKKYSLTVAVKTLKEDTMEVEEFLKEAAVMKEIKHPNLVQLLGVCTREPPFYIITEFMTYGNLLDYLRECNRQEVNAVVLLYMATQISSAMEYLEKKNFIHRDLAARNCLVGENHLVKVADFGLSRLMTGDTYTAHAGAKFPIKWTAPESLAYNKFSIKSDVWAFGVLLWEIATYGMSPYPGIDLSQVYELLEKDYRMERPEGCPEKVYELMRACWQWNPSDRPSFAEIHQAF
Procedure: as §2, with “The His-tagged kinase domain of c-Abl was cloned and expressed in the baculovirus/Sf9 system as described previously (Bhat et al. 1997) and assayed in 20 mM Tris-HCl, pH 7.5, 10 mM MgCl2, 10 μM Na3VO4, 1 mM DTT, 0.06 μCi/assay (=30 μl ) [γ-^32P]ATP, 5 μM ATP, 30 μg/ml poly(Ala,Glu,Lys,Tyr 6:2:5:1) (Sigma P1152), 1% DMSO, and 50 ng c-Abl enzyme.” left out
as §3

c-Kit = target: T4, c-Kit (Homo sapiens, UniProt P10721); experiment: GST-fused kinase domain assay, c-Kit; type: biochemical
T4 construct: GST-fused kinase domains of Kdr, Flt-1, Flk, Tek, c-Met, and c-Kit were expressed in baculovirus; GST; made in house
Procedure: as §1

T2 sequence (P00533 669-1210 limits assumed): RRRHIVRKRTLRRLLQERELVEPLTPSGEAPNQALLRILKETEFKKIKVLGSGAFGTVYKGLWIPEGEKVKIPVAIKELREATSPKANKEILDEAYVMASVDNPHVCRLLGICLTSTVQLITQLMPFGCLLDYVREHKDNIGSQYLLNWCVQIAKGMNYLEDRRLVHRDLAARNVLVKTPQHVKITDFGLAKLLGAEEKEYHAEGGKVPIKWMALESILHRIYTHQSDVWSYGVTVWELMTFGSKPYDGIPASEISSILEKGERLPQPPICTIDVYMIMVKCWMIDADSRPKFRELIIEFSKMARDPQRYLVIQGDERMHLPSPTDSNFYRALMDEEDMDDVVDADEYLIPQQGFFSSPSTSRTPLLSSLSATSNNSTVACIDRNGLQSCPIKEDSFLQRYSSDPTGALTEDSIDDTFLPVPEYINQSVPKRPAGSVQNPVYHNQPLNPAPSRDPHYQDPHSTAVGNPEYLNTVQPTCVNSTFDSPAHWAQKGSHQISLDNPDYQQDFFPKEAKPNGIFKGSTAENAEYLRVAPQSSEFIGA
Sequence of c-Src (P12931 whole entry, species assumed, the tested form may be a part): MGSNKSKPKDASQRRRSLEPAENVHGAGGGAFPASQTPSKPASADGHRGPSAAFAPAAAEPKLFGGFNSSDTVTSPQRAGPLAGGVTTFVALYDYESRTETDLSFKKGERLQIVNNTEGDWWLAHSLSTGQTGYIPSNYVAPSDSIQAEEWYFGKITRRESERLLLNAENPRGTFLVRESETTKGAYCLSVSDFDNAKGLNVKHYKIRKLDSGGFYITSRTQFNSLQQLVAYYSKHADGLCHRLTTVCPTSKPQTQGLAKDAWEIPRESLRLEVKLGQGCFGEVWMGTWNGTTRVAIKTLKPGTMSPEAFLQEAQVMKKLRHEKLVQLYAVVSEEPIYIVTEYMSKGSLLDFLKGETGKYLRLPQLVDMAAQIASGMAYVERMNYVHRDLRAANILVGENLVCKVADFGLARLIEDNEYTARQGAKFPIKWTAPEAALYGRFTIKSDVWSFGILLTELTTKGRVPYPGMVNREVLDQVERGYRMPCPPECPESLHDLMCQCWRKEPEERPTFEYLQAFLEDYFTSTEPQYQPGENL
T4 sequence (P10721 589-937 limits assumed): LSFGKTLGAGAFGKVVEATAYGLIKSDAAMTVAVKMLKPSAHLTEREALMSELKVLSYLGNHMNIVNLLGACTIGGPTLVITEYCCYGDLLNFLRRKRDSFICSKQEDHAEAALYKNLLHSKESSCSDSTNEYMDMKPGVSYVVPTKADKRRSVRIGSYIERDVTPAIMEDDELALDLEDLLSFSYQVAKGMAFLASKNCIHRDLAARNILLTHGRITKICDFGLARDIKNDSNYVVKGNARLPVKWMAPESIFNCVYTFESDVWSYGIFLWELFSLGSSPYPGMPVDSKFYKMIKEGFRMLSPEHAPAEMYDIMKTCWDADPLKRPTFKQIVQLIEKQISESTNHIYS
T1 sequence (P35968 834-1162 limits assumed): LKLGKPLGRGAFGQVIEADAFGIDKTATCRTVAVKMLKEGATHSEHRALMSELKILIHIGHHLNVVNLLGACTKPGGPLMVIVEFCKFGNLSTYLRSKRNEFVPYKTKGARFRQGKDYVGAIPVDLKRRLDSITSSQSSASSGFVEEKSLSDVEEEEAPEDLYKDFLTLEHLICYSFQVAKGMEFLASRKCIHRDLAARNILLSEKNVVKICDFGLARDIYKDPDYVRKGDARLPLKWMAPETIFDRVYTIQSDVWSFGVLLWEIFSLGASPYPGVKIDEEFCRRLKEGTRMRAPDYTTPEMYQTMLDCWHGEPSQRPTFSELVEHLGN

SMILES: C[C@@H](Nc1ncnc2[nH]c(-c3ccc(O)cc3)cc12)c1ccccc1 [PKI166, 4-(R)-phenethylamino-6-(hydroxyl) phenyl-7H-pyrrolo[2.3-d]-pyrimidine]
- pIC50 (KDR): 6.49
- IL-8 in culture supernatant (IL-8): 640 pg/mL
- mode of inhibition of EGF-R kinase (EGF-R-ICD; enzyme kinetic studies): ATP-competitive inhibition
- pIC50 (EGF-R-ICD; intracellular domain (ICD) of the EGF-R kinase): 9.15
- selectivity factor for inhibition of the EGF-R ICD (EGF-R-ICD; versus other tyrosine kinases (Traxler et al. 1999)): > 40
- selectivity ratio (EGF-R-ICD; with respect to inhibition of serine/threonine kinases PKC-α and Cdc2/cyclin B): > 3000
- pIC50 (c-Src): 6.99
- pIC50 (c-Src; text): 6.89
- pIC50 (c-Abl): 7.55
- pIC50 (c-Kit): 5.66
